Reference: US4975418A, “Therapeutically active compositions of pseudo-peptide of glutamyl-aspartic acid” (Centre National de la Recherche Scientific (CNRS), priority 1986, dated 1990)

System: SWISS mouse
Assay: convulsive crises induced by intraperitoneal pentylenetetrazole in the SWISS mouse
Format: in vivo
Conditions: given after pentylenetetrazole about 85 mg/kg i.p.
Method: During the first stages of the preparation and development of epileptic drugs it is necessary to generate experimental convulsive crises in an animal. The experimental convulsive crises make it possible to identify anticonvulsants, the anti-epileptic properties of which will be subsequently verified.
That is the reason why convulsive crises are induced in the SWISS mouse by the intraperitoneal injection of pentylenetetrazole at a dose of about 85 mg/kg.
Pentylenetetrazole is a bulbar excitant which, at this dose, causes convulsive crises in the mouse and the rabbit in a classical fashion with several well-characterized stages.
The subsequent intraperitoneal administration of the substance of formula I according to the invention brought about a suppression of these crises under the following conditions:
The subsequent intraperitoneal administration of N-γ-D-glutamyl-D-aspartic was also carried out and brought about the suppression of crises under the following conditions: […]

[1] = dose 285 nmol/kg intraperitoneal

Row | SMILES | suppression of crises, % of the animals (dose 71 nmol/kg intraperitoneal) [%] | suppression of crises, % of the animals [1] [%] | suppression of crises, % of the animals (dose 142.5 nmol/kg intraperitoneal) [%] | suppression of crises, % of the animals (dose 570 nmol/kg intraperitoneal) [%]
1 | N[C@H](CCC(=O)N[C@H](CC(=O)O)C(=O)O)C(=O)O [N-γ-D-glutamyl-D-aspartic, N-γ-D-glutamyl-D-aspartic acid] | 40 | 60 |  | 
2 | N[C@@H](CCC(=O)N[C@@H](CC(=O)O)C(=O)O)C(=O)O [formula I, N-γ-L-glutamyl-L-aspartate] |  | 50 | 50 | 70
